Measured values as given in publication PMC7070709, “Design, Synthesis, and In Vitro Evaluation of Hydroxybenzimidazole-Donepezil Analogues as Multitarget-Directed Ligands for the Treatment of Alzheimer’s Disease” (Molecules, 2020).
“Also recorded” adds a separate entry of the source. Where two headings read alike, the source gives them in different places.

Experiments:
[1] = Cu(II) chelation by potentiometry; assay type: physicochemical; conditions: pH 7.4; read-out: conditional dissociation constant (K´d) for the copper complex
Source text: The metal chelating ability of hybrids 7 and 12, due to the BIM bidentate unity with (N,O) coordination mode, was studied by potentiometry. Figure 3A,B show a change in the deprotonation profile of the ligand titration curves due to the presence of the metal ions. In fact, the curves for the Cu(II)/L systems lie well below that of the ligand, while for the Zn(II)/L systems stay under for a > −1 (compound 7) or a > 0 (compound 12), thus supporting the formation of 1:1 and 1:2 M/L ratio complexes with the deprotonated and mono-protonated forms of the ligand and with relative metal dependent stability order (Cu > Zn). Table 1 contains the equilibrium models obtained from the fitting analysis of the potentiometric curves by program Hyperquad. In these equilibrium models, which the coordination core of the compounds integrates the bidentate (N,O) BIM moiety, MHL and MH2L2 correspond to species with the ligand containing one protonated nitrogen atom at the piperazine moiety, ML and ML2 correspond to complexes involving the completely deprotonated form of the ligand while MH-1L2 are mixed ligand-hydroxo metal complexes.
Solutions: the aqueous copper (CuCl2, 0.015 M) and zinc (ZnCl2, 0.0156 M) stock solutions for potentiometric equilibrium studies were prepared from 1000 ppm standards (Titrisol) and their metal content was evaluated by atomic absorption. The titrant solution (0.1 M KOH) was obtained from a carbonate-free commercial concentrate (Titrisol) and standardized by potentiometric titration with potassium hydrogen phthalate. The titrant solution was discarded whenever the percentage of carbonate (Gran’s method) was about 0.5% of the total amount of base.
Measurements: compounds 7 and 12 were titrated in 50% (w/w) DMSO/H2O medium, at T = 25.0 ± 0.1 °C and ionic strength (I) 0.1 M KCl, using 0.1 M KOH as titrant. Both glass and Ag/AgCl reference electrodes were previously conditioned in DMSO/H2O mixtures with increasing amounts of DMSO and the response of the glass electrode was controlled by strong acid–strong base (HCl/KOH) calibrations with the determination of the Nernst parameters by Gran’s method. […] All titrations were performed in duplicate and under the stated experimental conditions the pKw value (13.6) was determined and subsequently used in the computations. The stepwise protonation constant of the ligand, Ki = [HiL]/([Hi–1L][H]), and the overall metal–complex stability constants, βMmHhLl = [MmHhLl]/([M]^m[H]^h[L]^l), were calculated by fitting the potentiometric titration data with Hyperquad 2008 [26]. The metal hydrolysis constants were determined under the defined experimental conditions (I = 0.1 M KCl, 50% w/w DMSO/H2O, T = 25.0 ± 0.1 °C) and the following values of stability constants were included in the fitting of experimental data towards the equilibrium models related to the Cu^2+/L and Zn^2+/L systems: log βCu2H−2 = −9.99; log βZnH−2 = −14.79, log βZnH−3 = −23.48. Species distribution curves were plotted with the Hyss program.

[2] = target: T1, AChE (type VI-S, from electric eel) (Electrophorus electricus, UniProt O42275); conditions: read-out: TcAChE Inhibition IC50; cited from earlier work
T1 construct: purchased type VI-S

Aβ1–42 [3] = target: T2, Aβ1–42 (Homo sapiens, UniProt P05067); design: method as in PMID 32171933; conditions: cited from earlier work
T2 construct: Aβ1–42 (40 μM) was incubated at 37 °C, for 24 h with or without Cu(II) (40 μM)

Aβ1–42 with Cu(II) [4] = target: T3, Aβ1–42 with Cu(II) (Homo sapiens, UniProt P05067); design: method as in PMID 32171933; conditions: copper 40 µM, cited from earlier work
T3 construct: Aβ1–42 (40 μM) was incubated at 37 °C, for 24 h with or without Cu(II) (40 μM)

[5] = 50% w/w DMSO/water, I = 0.1 M KCl, 25.0 °C; cited from earlier work
[6] = pH 7.4, CL/CM = 10, CM = 10^−6 M; cited from earlier work
[7] = pH 7.4, CL/CM = 10, CM = 10^−6 M; cited from earlier work; remark: listed apart in the source
[8] = target: T1, AChE (type VI-S, from electric eel); test: AChE inhibition, adaptation of Ellman's method; assay type: biochemical; conditions: means of three independent experiments ± SD, read-out: TcAChE Inhibition IC50
Description: The inhibition of AChE by the DNP-BIM hybrids herein studied was assayed by using a variation of Ellman´s test and the IC50 values obtained are included in Table 2. […]. An adaptation of the Ellman´s method, previously described, was used to measure the acetylcholinesterase inhibitory activity. The assay solution contained 374 µL of 4-(2-hydroxyethyl)-1-piperazineethanesulfonic acid (HEPES) buffer (50 mM, pH 8.0), 476 µL of 5,5’-dithiobis-(2-nitrobenzoic acid) (DTNB, 3 mM), a variable volume (10–50 µL) of the stock solution of each compound in methanol (1 mg/mL), 25 µL of AChE (type VI-S, from electric eel) stock solution, and the necessary amount of methanol to obtain 0.925 mL of sample mixture in a 1 mL cuvette. The samples were incubated for 15 min and then 75 µL of acetylthiocholine iodide (AChI) solution (16 mM) was added. The reaction was monitored for 5 min at 405 nm. Assays were run with a blank containing all the components except AChE, which was replaced by HEPES buffer. The rates of the reaction were calculated as well as the enzyme activity. A control reaction was carried out using methanol as a sample solution and it was considered as 100% activity.
The inhibition curves were obtained by plotting the percentage of enzymatic inhibition versus inhibitor concentration and a calibration curve was got from which the linear regression parameters were obtained.

Aβ1–42 [9] = target: T2, Aβ1–42; test: Inhibition of self-mediated Aβ1–42 aggregation (thioflavin T fluorescence); assay type: biochemical; conditions: inhibitor 40 µM, Aβ1–42 40 μM, 24 h, 37 °C; read-out: Aβ1–42 Aggregation Inhibition, Self-Induced
Description: (§1) The anti-amyloidogenic capacity of the compounds was also evaluated in vitro, in the absence and presence of Cu(II), based on the measurement of the fluorescence emission of Thioflavin T (ThT), a stain known by its Aβ fibril binding capacity. This binding interaction can be analyzed by fluorimetry, since the presence of ThT-fibrils increases the absorbance and the emission of the ThT dye, and it also induces red shifts on the absorbance (from 385 to 446 nm) and emission peaks (from 445 to 485 nm). All the measurements were performed after incubation (24 h, 37 °C) of the self-mediated and Cu^2+-induced Aβ aggregates in the presence/absence of the compounds under evaluation.
(§2) Herein, due to solubility problems of some compounds in the phosphate buffer (0.215 M, pH 8.0) of the working medium, the assays were carried out in the presence of 40 μM concentration of inhibitor and 20 μM in the case of compound 4, instead of 80 μM as previously reported. […] The activity dependence on ligand structural features may be mainly explained by the different ability for intercalation into the fibrils, as already assumed for other inhibitors. […] The data obtained for compounds 6 and 7 indicate that the presence of R1 = F, -NO2 substituents in the BIM have some small positive effect on the inhibition of Aβ aggregation.
(§3) The Aβ peptide was treated with 1,1,1,3,3,3-hexafluoropropan-2-ol (HFIP) and dissolved in a CH3CN/Na2CO3 (300 μM)/NaOH (250 μM) (48.3:48.3:4.3, v/v/v) mixture in order to have a stable stock solution, avoiding self-aggregation of Aβ1–42. Then, the prepared 500 μM solution was diluted at 40 μM in phosphate buffer (0.215 M, pH 8.0).
(§4) The solutions of the tested compounds were prepared in MeOH (1 mg/mL), being further diluted in phosphate buffer to a concentration of 480 μM. For copper-induced aggregation studies, a solution of CuCl2 240 μM was prepared from a stock standard solution (0.015 M). To perform the assays for the Aβ1–42 aggregation inhibition, a reported method, based on the fluorescence emission of thioflavin T (ThT), was followed. Aβ1–42 (40 μM) was incubated at 37 °C, for 24 h with or without Cu(II) (40 μM) in a phosphate buffer in presence or absence of the single ligand (40 μM and 20 μM for compound 4). Then, the samples were added to a 96-well plate with […] of 5 μM ThT in 50 mM glycine-NaOH (pH 8.5) buffer. Blank samples were prepared without the peptide for each concentration. The ThT fluorescence was measured at 446 nm (excitation) and 485 nm (emission). The inhibition percentage of aggregation was calculated by Equation (2), in which IFi and IF0 corresponded to the fluorescence intensities, in the presence and in the absence of the tested compound, subtracted of the fluorescence intensities due to the respective blanks.
(§5) The reported values were obtained as the mean ± SEM of duplicate of three different experiments.

Aβ1–42 with Cu(II) [10] = target: T3, Aβ1–42 with Cu(II); test: Inhibition of Cu-induced Aβ1–42 aggregation (thioflavin T fluorescence); assay type: biochemical; conditions: inhibitor 40 µM, copper 40 µM, Aβ1–42 40 μM, 24 h, 37 °C
Description: as §1, §2, §3, §4, §5

SH-SY5Y cells = test: Neuroprotection from Aβ42-induced toxicity (MTT); assay type: cell-based, human; conditions: compound 2.5 µM, 1 h pre-incubation plus 24 h co-incubation with Aβ42 1 µM
Description: Extracellular formation of senile plaques of aggregated Aβ along with the production of reactive oxygen species (ROS) are processes involved in the neurodegeneration that characterize AD [42]. […] Additionally, ROS production is also one of the hallmarks associated with AD pathogenesis.
SH-SY5Y human neuroblastoma cell line (ATCC-CRL-2266) was cultured in Dulbecco’s Modified Eagle Medium (DMEM) (Gibco-Invitrogen, Life Technologies Ltd., Liverpool, UK) supplemented with 10% of heat inactivated fetal bovine serum, 50 U/mL penicillin, and 50 μg/mL streptomycin, at 37 °C in 5% CO2. For the cell viability experiments, cells were plated with a density of 0.12 × 10^6 cells/mL. All the tested compounds (from 7 to 12) were dissolved in DMSO and aliquots were stored at −20 °C with a stock concentration of 25 mM. To choose the highest non-toxic concentration of the compounds, a concentration screening was performed (from 2.5 μM to 10 μM). For the experiments, all the compounds were added to the medium at a final concentration of 2.5 μM. […] Cells were pre-incubated for 1 h with the compounds and then incubated with Aβ1–42 or with Fe/Asc for an additional 24 h. […]
Cell viability was determined using the colorimetric 3-(4,5-dimethylthiazol-2-yl)-2,5-diphenyltetrazolium bromide (MTT) assay. […] The absorbance of the plate was measured at 570 nm. […]

T3 sequence (P05067 672-713): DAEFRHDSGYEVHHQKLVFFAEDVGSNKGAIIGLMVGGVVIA
T2 sequence (P05067 672-713): as above
T1 sequence (O42275 24-633): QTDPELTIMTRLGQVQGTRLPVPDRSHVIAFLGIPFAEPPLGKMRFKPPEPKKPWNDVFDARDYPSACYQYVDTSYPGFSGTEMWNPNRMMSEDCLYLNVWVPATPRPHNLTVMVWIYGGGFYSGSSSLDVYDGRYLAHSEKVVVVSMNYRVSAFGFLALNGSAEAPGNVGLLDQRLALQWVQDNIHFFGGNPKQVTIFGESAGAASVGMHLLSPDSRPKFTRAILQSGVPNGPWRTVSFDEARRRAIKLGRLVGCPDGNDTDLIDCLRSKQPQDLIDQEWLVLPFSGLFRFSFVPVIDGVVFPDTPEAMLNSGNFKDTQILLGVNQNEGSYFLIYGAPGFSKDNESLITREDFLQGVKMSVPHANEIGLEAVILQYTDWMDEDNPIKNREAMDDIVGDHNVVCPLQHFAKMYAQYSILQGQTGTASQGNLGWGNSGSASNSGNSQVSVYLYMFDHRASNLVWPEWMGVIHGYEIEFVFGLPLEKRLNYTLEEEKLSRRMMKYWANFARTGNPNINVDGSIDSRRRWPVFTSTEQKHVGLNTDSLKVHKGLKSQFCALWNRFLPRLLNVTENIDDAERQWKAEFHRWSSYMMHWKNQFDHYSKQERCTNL

For `O=C(NCCN1CCN(Cc2ccccc2)CC1)c1ccc2nc(-c3ccccc3O)[nH]c2c1` [Compound 2], the Kd [1] is listed as 0.024 µM, the IC50 [2] is listed as 6.9 ± 0.6 µM and the “Aβ1–42 Aggregation Inhibition, Self-Induced” value (Aβ1–42 [3]; footnote d, Cinhibitor = 80 µM) is listed as 25.3 ^d %. For the same compound, the “Aβ1–42 Aggregation Inhibition, Cu-Induced” value (Aβ1–42 with Cu(II) [4]; footnote d, Cinhibitor = 80 µM) was 37.7 ^d %, the “log K1, stepwise protonation constant (011)” value [5] was 9.04(3) and the “log K2, stepwise protonation constant (021)” value [5] was 6.76(6). For the same compound, the “log K3, stepwise protonation constant (031)” value [5] was 3.37(7), the “pCu (pM = −log[M])” value [6] was 10.7 and the “pZn (pM = −log[M])” value [7] was 6.3.

For `O=C(NCCN1CCN(Cc2ccccc2F)CC1)c1ccc2nc(-c3ccccc3O)[nH]c2c1` [Compound 10, N-(2-(4-(2-Fluorobenzyl)piperazin-1-yl)ethyl)-2-(2-hydroxyphenyl)-1H-benzo[d]imidazole-6-carboxamide], the IC50 [8] was 4.32 ± 0.03 µM, the inhibition at 40 µM (Aβ1–42 [9]) was 39.1% and the inhibition at 40 µM (Aβ1–42 with Cu(II) [10]) was 75.8%. For the same compound, the “neuroprotective effect against Aβ42-induced cell toxicity (cell viability, MTT)” value (SH-SY5Y cells) was “remarkable reduction of Aβ-induced cell toxicity; also recorded: prevented Aβ-induced cell toxicity”.

In the case of `O=C(NCC1CCN(Cc2ccccc2)CC1)c1ccc2nc(-c3ccccc3O)[nH]c2c1` [Compound 1], the Kd [1] is given as 0.034 µM, the IC50 [2] is given as 4.2 ± 0.8 µM and the “Aβ1–42 Aggregation Inhibition, Self-Induced” value (Aβ1–42 [3]; footnote e) is given as 48.8 ^e %. For the same compound, the “Aβ1–42 Aggregation Inhibition, Cu-Induced” value (Aβ1–42 with Cu(II) [4]; footnote e) was 69.0 ^e %, the “log K1, stepwise protonation constant (011)” value [5] was 8.671(1) and the “log K2, stepwise protonation constant (021)” value [5] was 7.39(1). The “log K3, stepwise protonation constant (031)” value [5] was 3.21(1) and the “pZn (pM = −log[M])” value [7] was 6.3.

In the case of `COc1ccc(-c2nc3ccc(C(=O)NCCN4CCN(Cc5ccccc5)CC4)cc3[nH]2)c(O)c1` [Compound 9, N-(2-(4-Benzylpiperazin-1-yl)ethyl)-2-(4-metoxy-2-hydroxyphenyl)-1H-benzo[d]imidazole-5-carboxamide], the IC50 [8] is reported as 1.87 ± 0.8 µM, the inhibition at 40 µM (Aβ1–42 [9]) is reported as 43.7% and the inhibition at 40 µM (Aβ1–42 with Cu(II) [10]) is reported as 66%. The “neuroprotective effect against Aβ42-induced cell toxicity (cell viability, MTT)” value (SH-SY5Y cells) was “remarkable reduction of Aβ-induced cell toxicity; also recorded: prevented Aβ-induced cell toxicity”.
